Experimental data as given in ChEMBL document CHEMBL5154690, “Discovery of a tricyclic farnesoid X receptor agonist HEC96719, a clinical candidate for treatment of non-alcoholic steatohepatitis” (Eur J Med Chem, 2022).
Calls of active or inactive are those of the source. The rule behind the calls is not given here.

Assays:
[1] = Half-life in male Sprague-Dawley rat at 5 mg/kg, po measured by LC-MS/MS analysis; format: ADME, organism-based; conditions: in vivo
[2] = Cmax in male Sprague-Dawley rat at 5 mg/kg, po measured by LC-MS/MS analysis; format: ADME, organism-based; design: dose 5 mg/kg, route po; conditions: in vivo
[3] = AUC (0 to t) in male Sprague-Dawley rat at 5 mg/kg, po measured by LC-MS/MS analysis; format: ADME, organism-based; design: dose 5 mg/kg, route po; conditions: in vivo
[4] = Clearance in male Sprague-Dawley rat at 1 mg/kg, iv measured by LC-MS/MS analysis; format: ADME, organism-based; conditions: in vivo
[5] = tested on: Mus musculus; assay: Anti-NASH activity against high fat (HF) diet-induced nonalcoholic steatohepatitis in leptin-deficient ob/ob mouse model assessed as reduction in serum ALT level at 3 mg/kg, po administered once daily from week 5 to 10; format: functional, organism-based
[6] = tested on: Mus musculus; assay: Anti-NASH activity against high fat (HF) diet-induced nonalcoholic steatohepatitis in leptin-deficient ob/ob mouse model assessed as reduction in NASH activity score (NAS) at 3 mg/kg, po administered once daily from week 5 to 10; format: functional, organism-based
[7] = biological target: Estrogen receptor beta (Homo sapiens, UniProt Q92731); assay: Agonist activity at estrogen receptor beta (unknown origin)
Chain of Estrogen receptor beta (Q92731 whole entry): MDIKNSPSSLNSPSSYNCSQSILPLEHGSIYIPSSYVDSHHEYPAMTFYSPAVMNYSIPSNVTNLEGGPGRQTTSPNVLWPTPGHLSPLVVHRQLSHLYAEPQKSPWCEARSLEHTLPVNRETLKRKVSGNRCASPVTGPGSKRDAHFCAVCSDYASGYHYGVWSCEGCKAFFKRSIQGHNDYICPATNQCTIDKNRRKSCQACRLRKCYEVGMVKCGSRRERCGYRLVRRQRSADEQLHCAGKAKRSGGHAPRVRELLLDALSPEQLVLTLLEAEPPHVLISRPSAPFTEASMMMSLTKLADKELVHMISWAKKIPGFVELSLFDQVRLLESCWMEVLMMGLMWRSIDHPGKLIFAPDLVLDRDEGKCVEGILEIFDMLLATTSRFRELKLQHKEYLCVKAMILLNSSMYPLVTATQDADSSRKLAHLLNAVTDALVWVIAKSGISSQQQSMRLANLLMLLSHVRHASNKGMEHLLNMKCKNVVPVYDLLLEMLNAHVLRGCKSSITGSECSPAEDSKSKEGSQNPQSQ

[8] = biological target: T1, Peroxisome proliferator-activated receptor alpha (Homo sapiens, UniProt Q07869); assay: Agonist activity at PPARalpha (unknown origin)
T1 sequence (Q07869 whole entry): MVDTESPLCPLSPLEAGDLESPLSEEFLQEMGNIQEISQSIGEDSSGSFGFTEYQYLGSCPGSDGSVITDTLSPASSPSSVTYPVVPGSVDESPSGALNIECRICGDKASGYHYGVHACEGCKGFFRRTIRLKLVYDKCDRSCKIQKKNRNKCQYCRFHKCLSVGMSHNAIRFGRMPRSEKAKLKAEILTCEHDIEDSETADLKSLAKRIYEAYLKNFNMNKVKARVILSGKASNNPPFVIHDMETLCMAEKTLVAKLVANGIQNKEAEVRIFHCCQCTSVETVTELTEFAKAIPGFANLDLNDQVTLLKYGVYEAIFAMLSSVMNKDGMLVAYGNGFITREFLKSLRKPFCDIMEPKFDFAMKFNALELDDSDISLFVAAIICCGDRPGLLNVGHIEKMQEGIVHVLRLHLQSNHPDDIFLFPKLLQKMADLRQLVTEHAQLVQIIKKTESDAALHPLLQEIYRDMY

[9] = biological target: T2, Bile acid receptor (Rattus norvegicus) (UniProt Q62735); assay: In vivo activation of FXR in male Sprague-Dawley rat assessed as fold increase in ileum FGF15 level at 5 mg/kg, po administered as single dose measured at 1 hr by RT-qPCR assay; format: functional, organism-based
T2 sequence (whole entry): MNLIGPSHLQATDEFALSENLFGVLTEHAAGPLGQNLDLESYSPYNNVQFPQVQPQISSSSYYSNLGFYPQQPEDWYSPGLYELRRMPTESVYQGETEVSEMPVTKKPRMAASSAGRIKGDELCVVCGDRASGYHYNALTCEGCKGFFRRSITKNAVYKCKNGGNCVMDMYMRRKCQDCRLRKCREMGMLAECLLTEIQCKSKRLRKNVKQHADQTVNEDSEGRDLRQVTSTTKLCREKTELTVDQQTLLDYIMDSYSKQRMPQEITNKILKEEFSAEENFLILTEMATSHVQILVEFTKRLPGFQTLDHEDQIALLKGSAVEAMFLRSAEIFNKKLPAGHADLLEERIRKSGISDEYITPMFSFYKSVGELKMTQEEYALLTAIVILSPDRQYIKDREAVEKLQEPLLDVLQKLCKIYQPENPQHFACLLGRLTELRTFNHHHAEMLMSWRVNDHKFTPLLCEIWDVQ

[10] = biological target: T2, Bile acid receptor (Rattus norvegicus); assay: In vivo activation of FXR in male Sprague-Dawley rat assessed as fold increase in liver BSEP level at 5 mg/kg, po administered as single dose measured at 1 hr by RT-qPCR assay; format: functional, organism-based
[11] = tested on: Mus musculus; assay: Antifibrotic activity in C57BL/6 mouse model of CCI4-induced liver fibrosis assessed as decrease in serum ALT level at 0.1 to 1 mg/kg, po administered once daily for 4 weeks; format: functional, organism-based; conditions: dose 0.1-1 mg/kg
[12] = Volume of distribution at steady state in male C57BL/6 mouse at 2 mg/kg, iv measured by LC-MS/MS analysis; format: ADME, organism-based; conditions: in vivo, read-out: Vdss
[13] = Half-life in male C57BL/6 mouse at 5 mg/kg, po measured by LC-MS/MS analysis; format: ADME, organism-based; conditions: in vivo
[14] = Oral bioavailability in male C57BL/6 mouse at 5 mg/kg measured by LC-MS/MS analysis; format: ADME, organism-based; conditions: in vivo
[15] = Half-life in male Beagle dog at 1 mg/kg, iv measured by LC-MS/MS analysis; format: ADME, organism-based, Canis lupus familiaris; conditions: in vivo
[16] = Drug metabolism in plasma of Sprague-Dawley rat assessed as production of toxic metabolites at 4.5 mg/kg, po administered as C14-lableled compound with single dose; format: ADME, organism-based; conditions: in vivo
[17] = Drug metabolism in bile of Sprague-Dawley rat assessed as production of toxic metabolites at 4.5 mg/kg, po administered as C14-lableled compound with single dose; format: ADME, organism-based; conditions: in vivo
[18] = Drug recovery in plasma of male Sprague-Dawley rat at 4.5 mg/kg, po administered as C14-lableled compound and assessed as radioactivity and measured at 0.25 hrs; format: ADME, organism-based; conditions: in vivo
[19] = Drug recovery in spleen of male Sprague-Dawley rat at 4.5 mg/kg, po administered as C14-lableled compound and assessed as radioactivity and measured at 1 hr; format: ADME, organism-based; conditions: in vivo
[20] = Drug recovery in lung of male Sprague-Dawley rat at 4.5 mg/kg, po administered as C14-lableled compound and assessed as radioactivity and measured at 1 hr; format: ADME, organism-based; conditions: in vivo
[21] = Drug recovery in stomach of male Sprague-Dawley rat at 4.5 mg/kg, po administered as C14-lableled compound and assessed as radioactivity and measured at 1 hr; format: ADME, organism-based; conditions: in vivo
[22] = Drug recovery in brain of male Sprague-Dawley rat at 4.5 mg/kg, po administered as C14-lableled compound and assessed as radioactivity and measured at 6 hrs; format: ADME, organism-based; conditions: in vivo, BLD = below limit of detection
[23] = Drug recovery in spleen of male Sprague-Dawley rat at 4.5 mg/kg, po administered as C14-lableled compound and assessed as radioactivity and measured at 6 hrs; format: ADME, organism-based; conditions: in vivo, BLD = below limit of detection
[24] = Drug recovery in plasma of male Sprague-Dawley rat at 4.5 mg/kg, po administered as C14-lableled compound and assessed as radioactivity and measured at 6 hrs; format: ADME, organism-based; conditions: in vivo
[25] = Drug recovery in heart of male Sprague-Dawley rat at 4.5 mg/kg, po administered as C14-lableled compound and assessed as radioactivity and measured at 24 hrs; format: ADME, organism-based; conditions: in vivo, BLD = below limit of detection
[26] = Drug recovery in spleen of male Sprague-Dawley rat at 4.5 mg/kg, po administered as C14-lableled compound and assessed as radioactivity and measured at 24 hrs; format: ADME, organism-based; conditions: in vivo, BLD = below limit of detection
[27] = Drug recovery in kidney of male Sprague-Dawley rat at 4.5 mg/kg, po administered as C14-lableled compound and assessed as radioactivity and measured at 24 hrs; format: ADME, organism-based; conditions: in vivo
[28] = Mutagenecity in Salmonella typhimurium TA1535 measured by Ames test; format: toxicity; conditions: salmonella enterica subsp. enterica serovar typhimurium

In the case of `O=C(O)c1ccc2c(c1)Oc1ccc(OCc3c(-c4c(Cl)cccc4Cl)noc3C3CC3)nc1C1(CC1)C2`, the half-life [1] is reported as 1.6 h, the Cmax [2] is reported as 1090 ng/mL and the AUC(0-t) [3] is reported as 1180 ng·h/mL. The clearance [4] was 35.3 mL/min/kg, the Activity [5] was “Active” and the Activity [6] was “Active”. The EC50 [7] was over 10 µM, the EC50 [8] was over 10 µM and the fold change (FC) [9] was 24. The fold change (FC) [10] was 2, the Activity [11] was “Active” and the Vd [12] was 3.83 L/kg. For the same compound, the half-life [13] was 1.06 h, the bioavailability [14] was 82.5% and the half-life [15] was 2.97 h. The Drug metabolism [16] was “Metabolite_Notdetected”, the Drug metabolism [17] was “Metabolite_Notdetected” and the Drug recovery [18] was 229 ngequiv/g. The Drug recovery [19] was 104 ngequiv/g, the Drug recovery [20] was 814 ngequiv/g and the Drug recovery [21] was 1536 ngequiv/g. For the same compound, the Drug recovery [22] was “Bld”, the Drug recovery [23] was “Bld” and the Drug recovery [24] was 27 ngequiv/g. For the same compound, the Drug recovery [25] was “Bld”, the Drug recovery [26] was “Bld” and the Drug recovery [27] was 74.4 ngequiv/g. For the same compound, the Activity [28] was “Non-Toxic”.
